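Method: 48-hour compound exposure of cells in 96-well plates, five concentrations, linear interpolation of endpoints. Here, GI50 denotes the concentration required for 50% inhibition of growth. TGI marks complete inhibition of growth.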
What was measured:
Assay in all cases: NCI-60 cell line screen, 48 h
HOP-92 NSCLC = tested on: HOP-92 NSCLC
HCT-15 colon = tested on: HCT-15 colon
UACC-62 melanoma = tested on: UACC-62 melanoma
CCRF-CEM leukemia = tested on: CCRF-CEM leukemia
NCI-H23 lung = tested on: NCI-H23 lung
OVCAR-5 ovarian = tested on: OVCAR-5 ovarian
TK-10 renal = tested on: TK-10 renal
BT-549 breast = tested on: BT-549 breast
HS 578T breast = tested on: HS 578T breast
U251 CNS = tested on: U251 CNS
786-0 renal = tested on: 786-0 renal
SN12C renal = tested on: SN12C renal
EKVX NSCLC = tested on: EKVX NSCLC
NCI-H460 lung = tested on: NCI-H460 lung
MDA-MB-231 breast = tested on: MDA-MB-231 breast
HOP-62 NSCLC = tested on: HOP-62 NSCLC
SW-620 colon = tested on: SW-620 colon
SK-OV-3 ovarian = tested on: SK-OV-3 ovarian
NCI/ADR-RES ovarian = tested on: NCI/ADR-RES ovarian
OVCAR-4 ovarian = tested on: OVCAR-4 ovarian
A549 NSCLC = tested on: A549 NSCLC
HCC-2998 colon = tested on: HCC-2998 colon
OVCAR-3 ovarian = tested on: OVCAR-3 ovarian
RXF 393 renal = tested on: RXF 393 renal
SK-MEL-2 melanoma = tested on: SK-MEL-2 melanoma
M14 melanoma = tested on: M14 melanoma
CAKI-1 renal = tested on: CAKI-1 renal
HT29 colon = tested on: HT29 colon
A498 renal = tested on: A498 renal
MDA-MB-435 = tested on: MDA-MB-435
MOLT-4 leukemia = tested on: MOLT-4 leukemia
IGROV1 ovarian = tested on: IGROV1 ovarian
SNB-75 CNS = tested on: SNB-75 CNS
SF-268 CNS = tested on: SF-268 CNS
MCF7 breast = tested on: MCF7 breast
ACHN renal = tested on: ACHN renal
UACC-257 melanoma = tested on: UACC-257 melanoma
HL-60(TB) leukemia = tested on: HL-60(TB) leukemia
SF-295 CNS = tested on: SF-295 CNS
KM12 colon = tested on: KM12 colon
NCI-H522 lung = tested on: NCI-H522 lung
SF-539 CNS = tested on: SF-539 CNS
SNB-19 CNS = tested on: SNB-19 CNS
COLO 205 colon = tested on: COLO 205 colon
UO-31 renal = tested on: UO-31 renal
LOX IMVI melanoma = tested on: LOX IMVI melanoma
HCT-116 colon = tested on: HCT-116 colon
PC-3 prostate = tested on: PC-3 prostate
RPMI-8226 leukemia = tested on: RPMI-8226 leukemia
NCI-H226 lung = tested on: NCI-H226 lung
K-562 leukemia = tested on: K-562 leukemia
DU-145 prostate = tested on: DU-145 prostate
MALME-3M melanoma = tested on: MALME-3M melanoma
SK-MEL-5 melanoma = tested on: SK-MEL-5 melanoma
T-47D breast = tested on: T-47D breast
OVCAR-8 ovarian = tested on: OVCAR-8 ovarian
SK-MEL-28 melanoma = tested on: SK-MEL-28 melanoma
SR leukemia = tested on: SR leukemia

## O=C(NCCCO)c1cc(Cl)ccc1O
HOP-92 NSCLC
  GI50: 0.468 µM
  TGI: 3.37 µM
HCT-15 colon
  GI50: 7.02 µM
  TGI: 21.6 µM
UACC-62 melanoma
  GI50: 3.09 µM
  TGI: 15.8 µM
CCRF-CEM leukemia
  GI50: 0.728 µM
  TGI: 17.3 µM
NCI-H23 lung
  GI50: 2.02 µM
  TGI: 8.3 µM
OVCAR-5 ovarian
  GI50: 4.4 µM
  TGI: 19.9 µM
TK-10 renal
  GI50: 4.26 µM
  TGI: 15.1 µM
BT-549 breast
  GI50: 3.27 µM
  TGI: 12.7 µM
HS 578T breast
  GI50: 3.98 µM
  TGI: 21.4 µM
U251 CNS
  GI50: 1.11 µM
  TGI: 12.1 µM
786-0 renal
  GI50: 3.14 µM
  TGI: 11.8 µM
SN12C renal
  GI50: 1.89 µM
  TGI: 11.7 µM
EKVX NSCLC
  GI50: 2 µM
  TGI: 18.1 µM
NCI-H460 lung
  GI50: 2.78 µM
  TGI: 11.1 µM
MDA-MB-231 breast
  GI50: 3.64 µM
  TGI: 12.8 µM
HOP-62 NSCLC
  GI50: 3.86 µM
  TGI: 13.4 µM
SW-620 colon
  GI50: 2.94 µM
  TGI: 14.3 µM
SK-OV-3 ovarian
  GI50: 3.31 µM
  TGI: 12.3 µM
NCI/ADR-RES ovarian
  GI50: 9.31 µM
  TGI: 27.9 µM
OVCAR-4 ovarian
  GI50: 2.54 µM
  TGI: 12.4 µM
A549 NSCLC
  GI50: 3.24 µM
  TGI: 14 µM
HCC-2998 colon
  GI50: 3.1 µM
  TGI: 14.3 µM
OVCAR-3 ovarian
  GI50: 1.6 µM
  TGI: 9.11 µM
RXF 393 renal
  GI50: 3.94 µM
  TGI: 12.9 µM
SK-MEL-2 melanoma
  GI50: 2.82 µM
  TGI: 6.54 µM
M14 melanoma
  GI50: 3.85 µM
  TGI: 15.7 µM
CAKI-1 renal
  GI50: 6.11 µM
  TGI: 24.6 µM
HT29 colon
  GI50: 2.16 µM
  TGI: 10.8 µM
A498 renal
  GI50: 4.43 µM
  TGI: 12.7 µM
MDA-MB-435
  GI50: 2.68 µM
  TGI: 12.1 µM
MOLT-4 leukemia
  GI50: 3.22 µM
  TGI: 15.1 µM
IGROV1 ovarian
  GI50: 3.94 µM
  TGI: 17 µM
SNB-75 CNS
  GI50: 2.44 µM
  TGI: 15.1 µM
SF-268 CNS
  GI50: 6.52 µM
  TGI: 20.2 µM
MCF7 breast
  GI50: 2.64 µM
  TGI: 11.9 µM
ACHN renal
  GI50: 3.73 µM
  TGI: 13.2 µM
UACC-257 melanoma
  GI50: 2.23 µM
  TGI: 7.54 µM
HL-60(TB) leukemia
  GI50: 2.22 µM
  TGI: 6.35 µM
SF-295 CNS
  GI50: 1.36 µM
  TGI: 6.01 µM
KM12 colon
  GI50: 2.43 µM
  TGI: 12.9 µM
NCI-H522 lung
  GI50: 1.12 µM
  TGI: 4.77 µM
SF-539 CNS
  GI50: 4.85 µM
  TGI: 17.5 µM
SNB-19 CNS
  GI50: 2.26 µM
  TGI: 17.6 µM
COLO 205 colon
  GI50: 1.95 µM
  TGI: 5.85 µM
UO-31 renal
  GI50: 2.98 µM
  TGI: 11.3 µM
LOX IMVI melanoma
  GI50: 2.5 µM
  TGI: 11.5 µM
HCT-116 colon
  GI50: 1.75 µM
  TGI: 10.5 µM
PC-3 prostate
  GI50: 2.06 µM
  TGI: 10.2 µM
RPMI-8226 leukemia
  GI50: 0.704 µM
  TGI: 2.68 µM
NCI-H226 lung
  GI50: 3.27 µM
  TGI: 13.4 µM
K-562 leukemia
  GI50: 0.901 µM
  TGI: 18.4 µM
DU-145 prostate
  GI50: 4.41 µM
  TGI: 16.1 µM
MALME-3M melanoma
  GI50: 1.85 µM
  TGI: 8.33 µM
SK-MEL-5 melanoma
  GI50: 1.94 µM
  TGI: 4.33 µM
T-47D breast
  GI50: 1.67 µM
  TGI: 18 µM
OVCAR-8 ovarian
  GI50: 2.38 µM
  TGI: 13 µM
SK-MEL-28 melanoma
  GI50: 4.45 µM
  TGI: 17.3 µM
SR leukemia
  GI50: 3.24 µM
  TGI: 18.2 µM

From PubChem BioAssay (NCI)
